# Test results: PubChem BioAssay AID1329 (NMMLSC, 2008)
# Calls of active or inactive are those of the source. How the calls were made is not given here.
# Target: Induced myeloid leukemia cell differentiation protein Mcl-1 (Homo sapiens) (UniProt Q07820)
# Test: Mcl-1/Bim interaction regulators – biochemical, bead-based flow cytometry, multiplexed, human, dose response (AID 1329)
# Conditions: Bim peptide-Mcl-1 binding, MCF
# Chain of Induced myeloid leukemia cell differentiation protein Mcl-1 (Homo sapiens) (Q07820 whole entry, looked up): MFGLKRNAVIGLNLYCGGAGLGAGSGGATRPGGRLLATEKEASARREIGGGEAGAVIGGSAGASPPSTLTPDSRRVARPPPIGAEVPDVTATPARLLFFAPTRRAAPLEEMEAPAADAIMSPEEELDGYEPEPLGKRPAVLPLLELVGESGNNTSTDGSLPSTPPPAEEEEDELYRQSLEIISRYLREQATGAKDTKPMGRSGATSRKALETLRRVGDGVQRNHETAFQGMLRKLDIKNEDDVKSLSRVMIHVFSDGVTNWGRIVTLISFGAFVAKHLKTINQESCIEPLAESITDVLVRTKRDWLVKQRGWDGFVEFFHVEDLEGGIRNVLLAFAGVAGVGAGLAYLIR
row,Compound,percent span
1,Cc1sc(NC(=O)Cn2cnnn2)nc1-c1ccc(Cl)cc1,inactive
2,CS(=O)(=O)NN1C(=O)c2ccccc2NC1c1cccc2cccnc12 (stereo not drawn),inactive
3,Cc1noc(C)c1COc1ccc(C(=O)Nc2cccnc2)cc1,inactive
4,CCCCNC(=O)c1ccc2nc(-c3ccco3)c(-c3ccco3)nc2c1,inactive
5,O=C(C1CCC(Cn2c(=S)[nH]c3ccccc3c2=O)CC1)N1CCN(c2ccccn2)CC1 (stereo not drawn),inactive
6,C=CCn1c(SCC(=O)Nc2ccc3c(c2)OCO3)nnc1-c1cc(Br)ccc1O,inactive
7,O=C(Oc1ccc(-c2cnc3ccccc3n2)cc1)c1cccc([N+](=O)[O-])c1,inactive
8,N/C(=N\N=C/c1ccc(Br)cc1)N/N=C\c1ccc(Br)cc1,inactive
9,COc1ccc(N2CCN(C(CNS(=O)(=O)c3ccc4c(c3)OCCO4)c3ccco3)CC2)cc1 (stereo not drawn),inactive
10,CN(C)C(Cc1ccccc1)C(=O)c1cccs1 (stereo not drawn),inactive
11,Cc1cccc(N2CCN(C(=S)Nc3ccc4nc(N5CCN(C)CC5)cc(C)c4c3)CC2)c1C,inactive
12,COCc1cc(CN2CCCC(CNC(=O)c3ccc(F)cc3)C2)ccc1OC (stereo not drawn),inactive
13,O=C(CCCN1C(=O)c2cccc3cccc(c23)C1=O)N1CCN(c2ccccn2)CC1,inactive
14,CC(=O)c1ccc2c(c1)C1C=CCC1C(c1ccncc1)N2 (stereo not drawn),inactive
15,COc1cc(/C=C2\S/C(=N/S(=O)(=O)c3ccccc3)NC2=O)c([N+](=O)[O-])cc1OC,inactive
16,Cc1onc(-c2ccccc2)c1C(=O)Nc1nnc(COc2ccc(Cl)cc2)s1,inactive
17,CCOc1ccccc1C(=O)NC1CC2CCCC(C1)N2C1CC1 (stereo not drawn),inactive
18,C/C(=N\NC(=O)COc1ccc(C#N)cc1)c1ccccc1OC(F)F,inactive
19,O=c1nc2c(O)cccn2c2c1c(=O)[nH]c1ccccc12,inactive
20,Cc1cc(N2CCN(C)CC2)nc2ccc(NC(=S)N3CCN(c4ccc(F)cc4)CC3)cc12,inactive
21,CC1=CC(=O)c2ccccc2C1=O,inactive
22,Cn1c(N)c(C(=O)COC(=O)c2cc(-c3ccco3)nc3ccccc23)c(=O)n(Cc2ccccc2)c1=O,inactive
23,CCOC(=O)C1CCCN(c2ncnc3c2cnn3-c2cccc(C)c2)C1 (stereo not drawn),inactive
24,COc1ccccc1OCc1ccc(C(=O)Nc2ccccc2F)cc1,inactive
25,O=C(NCc1ccccc1)C(=O)Nc1nc(C23CC4CC(CC(C4)C2)C3)cs1,inactive
26,NC(=O)c1c(NC(=O)C2CCCO2)sc2c1CCCC2 (stereo not drawn),inactive
27,CNc1ccc(Br)cc(C(=O)/C=C/c2ccc(OC)cc2OC)c1=O,inactive

row,Compound,percent span
1,C/C(=N\NC(=O)Cn1nc(C)c([N+](=O)[O-])c1C)c1ccc(O)cc1,inactive
2,CCOC(=O)CSC1=NC(=O)/C(=C\c2ccc(OC(C)=O)cc2)S1,inactive
3,COc1ccc(NC(=O)/C(C#N)=C/c2c(C)nn(-c3ccc(F)cc3)c2Cl)cc1Cl,inactive
4,O=C(Cn1c(-c2ccccc2)noc1=O)N1CCC(Cc2ccccc2)CC1,inactive
5,CCN1CCN(c2cc(C)c3cc(NC(=S)N4CC(C)CC(C)C4)ccc3n2)CC1 (stereo not drawn),inactive
6,CCN(CC)c1ccc(NC(=O)COc2ccccc2C)cc1S(=O)(=O)Nc1ccccc1OC,inactive
7,Cc1cc(C)nc(/N=C(\N)N2CCc3ccccc32)n1,inactive
8,CC(=O)OCCNc1cc(Sc2nc3ccccc3[nH]2)c2nonc2c1[N+](=O)[O-],inactive
9,N#Cc1cccc(N=c2ssnc2Cl)c1,inactive
10,COc1ccccc1NC(=O)CSc1ncn(-c2ccccc2)n1,inactive
11,CCOC(=O)C1CCN(C(=O)Nc2ccc3nc(-c4ccco4)c(-c4ccco4)nc3c2)CC1,inactive
12,Cn1c(=O)c2c(nc(NCCO)n2CCc2ccccc2)n(C)c1=O,inactive
13,Cc1cc(NC(=O)CSc2nnc(-c3cccnc3)n2Cc2ccccc2)no1,inactive
14,CCOC(=O)C1=C(CC)Nc2ccccc2N=C1NC(=O)c1ccc(S(=O)(=O)N2CCOCC2)cc1,inactive
15,Cc1ccc2nc3c(cc(C(N)=S)c(=N)n3CCCOC(C)C)c(=O)n2c1,inactive
16,Clc1ccc2c(N/N=C/c3ccccc3Br)ccnc2c1,inactive
17,Cc1ccc2c(c1)C1CN(C)CCC1N2C(=O)Nc1cccc(Cl)c1 (stereo not drawn),inactive
18,O=C(COc1ccc(Br)cc1CNC1CCCCC1)NCCc1ccccc1,inactive
19,Cc1cccn2c(=O)c3cc(C(N)=S)c(=N)n(CCCN4CCOCC4)c3nc12,inactive
20,O=S1(=O)N=C(N(CCO)/N=C/c2ccccc2)c2ccccc21,inactive
21,O=C1CCc2cc(S(=O)(=O)NCCCC(=O)N3CCN(Cc4ccc5c(c4)OCO5)CC3)ccc2N1,inactive
22,Cc1ccc(-c2cc(-c3ccc(C)o3)nc(N)c2C#N)cc1,inactive
23,Cc1ccc(C)c(/C=C/C(=O)c2ccccc(=O)c2O)c1,inactive
24,CCOCCOc1nc2c(c(=O)n(C)c(=O)n2C)n1CCc1ccccc1,inactive
25,C/C(=C\c1ccco1)C1Nc2cccc3cccc(c23)N1,inactive
26,Cc1ccc(-c2nnc(Cc3ccc(Cl)cc3)o2)cc1,inactive
